From patent publication US20230220047A1, “PEPTIDES FOR TREATMENT OF SEPSIS AND CANCER” (NORWEGIAN UNIVERSITY OF SCIENCE AND TECHNOLOGY (NTNU), priority 2020, published 2023)

Experiments:
TLR4 [1] = experiment: qPCR of TLR4-mediated cytokine expression in B6 immortalised murine macrophages; type: cell-based, mouse; settings: 10 μM, 1 h pre-treatment, LPS 100 ng/ml
Description: Cells were pre-treated with 10 μM peptides in cell culture media for 1 h, and stimulated with LPS (100 ng/ml) for increasing lengths of time.
Immortalized bone-derived-macrophages (iBMDM) from wild type, Tram−/− or TIr4−/− C57BL/6 mice were maintained at 37° C. and 5% CO2 in DMEM supplemented with 10% FCS.
Total RNA was isolated from the cells using Qiazol reagent #79306 from QIAGEN, and chloroform extraction followed by purification on RNeasy Mini columns with DNAse digestion (Qiagen). cDNA was prepared using the Maxima First Strand cDNA Synthesis Kit for quantitative real-time polymerase chain reaction (RT-qPCR) (Thermo Fisher Scientific) according to the manufacturer's protocol. qPCR was performed using the PerfeCTa qPCR FastMix (Quanta Biosciences) in replicates and cycled in a StepOnePlus™ Real-Time PCR cycler. The following TaqMan® Gene Expression Assays (Applied Biosystems®) were used: IFNβ (Hs01077958_s1), TNF (Hs00174128_m1), TBP (Hs00427620_m1), CXCL10 (Hs01124251_g1), IL-6 (Hs00174131_m1) and IL-1β (Hs01555410_m1), for human cells; Ifnβ (Mm00439552_s1), Tnf (Mm00443258_m1), Tbp (Mm01277042_m1) and II-1β (Mm00434228_m1), for mouse cells. No RT controls were negative. The level of TBP mRNA was used for normalisation and results presented as relative expression compared to the control untreated sample. Relative expression was calculated using Pfaffl's mathematical model (Pfaffl, Nucleic Acids Research 29(9): e45, 2001). Results are presented as the mean and SD expression fold change for biological replicates relative to non-stimulated cells. Statistical significance was evaluated in GraphPad Prizm 5.03. Data distribution was assumed to be normal but this was not formally tested. The difference between the two groups was determined by two-tailed t test.
We proceeded with cellular assays to address the effect of peptide pre-treatment on TLR4-mediated cytokine expression in B6 immortalised murine macrophages (FIG. 13). Tested peptides had no cytotoxic effect on B6 murine macrophages (FIG. 13A).

TLR4 [2] = experiment: ELISA/Bioplex of LPS-mediated cytokine secretion by THP-1 cells; type: cell-based, human; settings: for LPS-mediated secretion of IL-18, IL-6, IL-8 and TNF (27-plex Bioplex): 10 μM
Description: (A) Results of LDH assay and ELISAs analysing cytokine secretion after 5 h of stimulation with LPS (graphs show mean values for at least 3 biological replicates). […] In the tables average values are presented based on 3-5 biological replicates for each experiment. […]
TNF in supernatants was detected using a human TNF-alpha DuoSet ELISA (DY210) (R&D Systems); CXCL10 using a DuoSet ELISA (DY266) (R&D Systems); IL-1β using a BD OptEiA human IL-1β ELISA SetII (#557953, BD Biosciences): IFNβ using a VeriKine-HS™ Human Interferon-Beta Serum ELISA Kit (#41415) from PBL Assay Science. Some supernatants were also analysed by multiplex cytokine assay (Bio-Plex; Bio-Rad Laboratories Inc.) for IL-1β, IL-6, IL-8, CXCL10/IP-10. Results are presented as mean and SD for biological replicates for a representative donor (primary human macrophages), or at least three independent experiments for the model cell line THP-1. Statistical significance was evaluated in GraphPad Prizm 5.03. Data distribution was assumed to be normal but this was not formally tested. The difference between the two groups was determined by two-tailed t test.

TLR4 [3] = experiment: Whole blood assay, LPS stimulation; type: cell-based, human
Text: […] Results are for at least 6 donors. The Wilcoxon matched-pairs signed rank test was used for statistical analysis between 2 groups in Prizm 8.2.1. In each graph, circles indicate whole blood pre-treated with water, squares indicate blood pre-treated with control peptide (average for treatment with Pen and C3-Pen), and triangles indicate pre-treatment with P7-Pen.
To evaluate the effect of peptides in an ex vivo system, a human whole blood model was used. Peripheral venous blood was drawn from 6 healthy donors into sterile polypropylene tubes (Thermo Scientific™ Nunc™ Biobanking and Cell Culture Cryogenic Tubes) containing the anti-coagulant Lepirudin (Refludan®; Celgene). […] Peptide solution or DPBS was distributed in equal volume (50 μL) to 1.8 mL sterile polypropylene tubes (Thermo Scientific™Nunc™ Biobanking and Cell Culture Cryogenic Tubes). […] Stimulation solutions were made by diluting K12 LPS or CL075 in DPBS to obtain a final concentration in whole blood of 100 ng/mL (LPS) or 1 μg/mL (CL075) after addition of 50 μL stimulation solution or DPBS. […] Tubes were incubated at 37° C. under constant rotation for 4 h. Finally, plasma was isolated from the whole blood specimens by centrifugation, collected in 96 well plates (Corning® 96 Well CellBIND® Microplates), and stored at −20/−80° C. until analysis by multiplex/27-plex cytokine assay or IFNβ ELISA (VeriKine-HS Human Interferon Beta Serum ELISA Kit; pbl Assay Science).

| Substance | TLR4-mediated Ifnβ, Tnf and Il-1β mRNA expression (TLR4 [1]) | inhibitory activity towards LPS-induced CXCL10, TNF and IL-1β secretion (ELISA) (TLR4 [2]; 15 μM, 30 min pre-treatment, LPS 100 ng/ml 5 h, relative to P7-Pen) | inhibition of CXCL10 secretion (TLR4 [2]; 10 μM applied 30 min before or simultaneously with LPS, LPS 6 h) | inhibitory effect on CXCL10 secretion (TLR4 [2]; 10 μM applied 1 h after addition of LPS) | LPS-mediated secretion of IL-18, IL-6, IL-8 and TNF (27-plex Bioplex) (TLR4 [2]; 30 min pre-treatment) | TLR4-mediated IFNβ release by whole blood cells (TLR4 [3]; 20 μM, LPS 100 ng/ml 4 h) | LPS/TLR4-induced TNF, IL-6 and IL-1β secretion (TLR4 [3]; 20 μM, compared to control peptides) | LPS-mediated TNF secretion (ELISA) (TLR4 [2]; not shown) | LPS-mediated IFNβ secretion by whole blood cells (TLR4 [3]; pilot assay, 10 μM, LPS 100 ng/ml) |
| --- | --- | --- | --- | --- | --- | --- | --- | --- | --- |
| Ac-ITVAASVTLTGRQIKIWFQNRRMKWKK-NH2 [Peptide P7-A4-Pen] | strongly inhibited | least effect on peptide activity |  |  |  |  |  |  |  |
| Ac-ITVYASVTLTGRQIKIWFQNRRMKWKK-NH2 [Peptide P7-Pen] | strongly inhibited |  | very effective | reduced | inhibitory effect | effectively abrogated | significant reduction |  |  |
| Ac-ITVYASVTLTGRRRRRRRRRRR-NH2 [Peptide P7-Arg11] |  |  |  |  | inhibitory effect |  |  | prevented TNF secretion | inhibited |
